Measured values published in ChEMBL document CHEMBL5725201, “Cycloalkane derivatives” (2016).

Assay: Electrophysiological Assay: Current record was obtained by an automated patch clamp system IonWorks Quattro (Molecular Devices Corporation) in Population Patch Clamp mode. The operation was conducted in accordance with the operating procedure of the system. A Dulbecco's phosphate buffer containing calcium and magnesium (Sigma) was used as an extracellular fluid, and a low Cl-buffer (100 mM K-gluconate, 40 mM KCl, 3.2 mM MgCl2, 5 mM EGTA, 5 mM Hepes, pH 7.3) was used as an intracellular fluid. A test compound was dissolved in dimethylsulfoxide (DMSO) to prepare a 30 mM stock solution, so as to produce 4-fold serial dilutions with the extracellular fluid for attaining a DMSO concentration of 0.3% in measurement.The hNav 1.7/β1/β2 cells cultured to a 70-80% confluent state in a T150 flask (Sumilon) were washed with PBS and subsequently with versene (Invitrogen Corp.), and collected by allowing to react with 0.05% trypsin (Invitrogen Corp.) at 37° C. for 3 minutes. After washing with a culture medium, the resultant cells were suspended in an extracellular fluid at a concentration of […] so as to be used for the measurement. The cell membrane was perforated by using an intracellular fluid including 100 ug/ml amphotericin B (Sigma). Current response was obtained at a sampling frequency of 10 kHz. […]
Type: cell-based

Cc1c(O[C@H]2CCCC[C@@H]2c2c[nH]nc2N)ccc(S(=O)(=O)Nc2ccncn2)c1F
IC50: 100 nM
